Source: article PMC5704987 (Fetal and pediatric pathology, 2017)
Several values for one entry are separate records, joined by “and”; a condition that tells them apart may be missing. Equal values may be shown once. Read-outs that look alike come from different tables or passages of the source. One block for each molecule: values may come before it.

Columns and labels:
[1] = test system: oxytocin-induced uterine contractility; conditions: murine model, preliminary work by the group; ref [10]; cited from earlier work
[2] = Progesterone metabolism in pooled human liver microsomes
[3] = human, microsomes, pH 7.4
recombinant human CYP3A4 = recombinant human CYP3A4 (Homo sapiens, UniProt P08684); conditions: pH 7.4
recombinant human CYP3A5 = recombinant human CYP3A5 (Homo sapiens, UniProt P20815); conditions: recombinant enzyme, pH 7.4
[4] = molecular target: T1, recombinant CYP19A1 (aromatase) (Homo sapiens, UniProt P11511); experiment: Progesterone incubation with recombinant CYP19A1; format: in vitro ADME; conditions: progesterone 100 μM, CYP19A1 25 pmol, data not shown
T1 sequence (P11511 1-503): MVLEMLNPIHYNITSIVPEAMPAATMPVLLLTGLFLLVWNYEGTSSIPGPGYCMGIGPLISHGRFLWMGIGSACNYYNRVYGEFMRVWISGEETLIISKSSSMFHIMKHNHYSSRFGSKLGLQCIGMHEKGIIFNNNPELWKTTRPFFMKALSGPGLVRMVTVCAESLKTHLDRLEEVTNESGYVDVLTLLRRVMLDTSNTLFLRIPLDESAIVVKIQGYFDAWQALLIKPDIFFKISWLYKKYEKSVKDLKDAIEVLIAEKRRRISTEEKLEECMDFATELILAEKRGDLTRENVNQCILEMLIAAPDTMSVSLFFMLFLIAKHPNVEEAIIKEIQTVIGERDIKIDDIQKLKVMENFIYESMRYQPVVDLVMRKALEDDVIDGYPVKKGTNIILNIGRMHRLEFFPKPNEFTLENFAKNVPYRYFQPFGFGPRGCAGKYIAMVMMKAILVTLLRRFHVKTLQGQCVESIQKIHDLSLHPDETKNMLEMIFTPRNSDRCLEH

[5] = In vitro in vivo extrapolation to maternal liver; set-up: species or system human
CYP17A1 = conditions: microsomes from CYP17A1-transfected COS1 cells; ref [11]; cited from earlier work
[6] = In vitro in vivo extrapolation to fetal liver; set-up: species or system human
recombinant CYP2A6 = molecular target: T2, recombinant CYP2A6 (Homo sapiens, UniProt P11509); experiment: Progesterone incubation with recombinant CYP2A6; format: in vitro ADME; conditions: recombinant CYP2A6, data not shown
T2 sequence (P11509 1-494): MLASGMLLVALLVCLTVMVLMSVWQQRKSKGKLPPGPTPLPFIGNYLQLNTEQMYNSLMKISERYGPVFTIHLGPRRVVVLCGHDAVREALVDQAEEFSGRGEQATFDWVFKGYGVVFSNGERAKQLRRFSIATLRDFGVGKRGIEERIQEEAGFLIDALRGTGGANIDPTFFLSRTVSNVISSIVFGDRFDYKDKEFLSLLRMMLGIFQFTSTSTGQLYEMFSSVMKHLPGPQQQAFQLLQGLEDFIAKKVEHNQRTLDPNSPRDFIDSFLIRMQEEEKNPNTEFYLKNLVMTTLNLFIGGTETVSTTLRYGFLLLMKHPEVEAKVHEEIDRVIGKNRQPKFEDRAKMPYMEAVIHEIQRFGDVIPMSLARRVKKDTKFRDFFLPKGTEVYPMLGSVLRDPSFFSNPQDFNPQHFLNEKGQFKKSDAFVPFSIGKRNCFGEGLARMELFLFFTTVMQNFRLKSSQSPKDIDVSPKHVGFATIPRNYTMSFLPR

in vitro = conditions: human
[7] = substrate: CC(=O)[C@H]1CC[C@H]2[C@@H]3CCC4=CC(=O)CC[C@]4(C)[C@H]3CC[C@]12C
not read = substrate: CC(=O)[C@H]1CC[C@H]2[C@@H]3CCC4=CC(=O)CC[C@]4(C)[C@H]3CC[C@]12C; experiment: not read; conditions: other: rCYP3A5 20 pmol, progesterone 20–250 μM; mean ± SE (95% CI); pH 7.4
[8] = HLMs 0.5 mg/mL, progesterone 20–250 μM, 30 min, mean ± SE
[9] = Maternal, CYP3A5*0*0 (nonexpresser)
[10] = Fetal, CYP3A5*0*0 (nonexpresser)

Chain of recombinant human CYP3A4 (P08684 2-503 limits assumed): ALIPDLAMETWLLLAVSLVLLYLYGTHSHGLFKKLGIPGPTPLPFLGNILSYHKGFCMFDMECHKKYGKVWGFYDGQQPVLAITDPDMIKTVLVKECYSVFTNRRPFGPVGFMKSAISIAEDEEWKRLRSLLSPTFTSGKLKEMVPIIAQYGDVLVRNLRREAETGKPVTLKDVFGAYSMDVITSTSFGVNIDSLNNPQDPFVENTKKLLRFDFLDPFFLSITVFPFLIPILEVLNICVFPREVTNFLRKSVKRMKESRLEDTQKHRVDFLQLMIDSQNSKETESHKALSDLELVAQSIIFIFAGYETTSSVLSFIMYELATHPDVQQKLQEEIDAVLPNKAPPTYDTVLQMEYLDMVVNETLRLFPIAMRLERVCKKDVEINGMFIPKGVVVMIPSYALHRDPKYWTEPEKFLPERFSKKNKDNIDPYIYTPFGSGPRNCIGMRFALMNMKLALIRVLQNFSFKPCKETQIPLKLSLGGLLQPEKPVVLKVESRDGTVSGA

Molecule: CC(=O)[C@H]1CC[C@H]2[C@@H]3C[C@@H](O)C4=CC(=O)CC[C@]4(C)[C@H]3CC[C@]12C [6β-OHP, 6β-hydroxyprogesterone]
effect on oxytocin-induced uterine contractility frequency [1]: increased
further metabolism on incubation with HLMs ([2]; metabolite incubated with HLMs, data not shown): did not yield additional metabolism products

Molecule: CC(=O)[C@H]1[C@H](O)C[C@H]2[C@@H]3CCC4=CC(=O)CC[C@]4(C)[C@H]3CC[C@@]21C [16α-OHP, 16α-hydroxyprogesterone]
effect on oxytocin-induced uterine contractility frequency [1]: decreased

intrinsic clearance (CLint), 6β-OHP formation [3]: 59.2 μL/min/mg protein
6β-OHP CLint (recombinant human CYP3A4; recombinant enzyme): 2.3 μL/min/pmol protein
enzymatic activity (CLint) for 6β-OHP, CYP3A4 relative to CYP3A5 (recombinant human CYP3A4; recombinant enzyme): 25 fold
activity (CLint) for 6β-OHP, CYP3A5 relative to CYP3A7 (recombinant human CYP3A5): 23 fold
formation of 6β-OHP and 16α-OHP metabolites [4]: minimal formation
6β-OHP CLf [5, 9]: 624 L/h
16α-OHP CLf [5, 9]: 346 L/h
CLint, H [5, 9]: 970 L/h
6β-OHP formation relative to 16α-OHP ([5]; maternal, CYP3A5 expressers): 2 fold
reduction in clearance of progesterone in CYP3A5 nonexpressers ([5]; maternal, vs CYP3A5 expressers): 5%
6β-OHP formed, fetuses expressing active CYP3A5 relative to nonexpressers [6]: ~ 3 times
clearance from fetal liver relative to maternal liver [6]: less than 0.1%
6β-OHP CLf [6, 10]: 0.19 L/h
16α-OHP CLf [6, 10]: 0.13 L/h
CLint, H [6, 10]: 0.32 L/h
metabolite formation (recombinant CYP2A6): did not produce detectable metabolites
Km at 30 min (in vitro; pH 7.4, Km for formation of 6β-OHP): 27.7 ± 8.1 µM
Km at 30 min (in vitro; pH 7.4, Km for formation of 16α-OHP): 29.8 ± 5.7 µM
Molecule: CC(=O)[C@H]1CC[C@H]2[C@@H]3CCC4=CC(=O)CC[C@]4(C)[C@H]3CC[C@]12C [progesterone, Progesterone]
6β-OHP Vmax (recombinant human CYP3A4): 22.3 ± 1.1 (20.1–24.6) pmol/min/pmol protein
Vmax for formation of 6β-OHP [2, 8]: 1640±111 pmol/min/mg protein
Vmax for formation of 16α-OHP [2, 8]: 192.1 ± 8.9 pmol/min/mg protein
Vmax for 16α-OHP formation (CYP17A1): 0.12 nmol/h/mg protein
Vmax for 17α-OHP formation (CYP17A1): 0.46 nmol/h/mg protein

B1: recombinant human CYP3A7 (Homo sapiens) (protein)
chain: MDLIPNLAVETWLLLAVSLILLYLYGTRTHGLFKKLGIPGPTPLPFLGNALSFRKGYWTFDMECYKKYRKVWGIYDCQQPMLAITDPDMIKTVLVKECYSVFTNRRPFGPVGFMKNAISIAEDEEWKRIRSLLSPTFTSGKLKEMVPIIAQYGDVLVRNLRREAETGKPVTLKHVFGAYSMDVITSTSFGVSIDSLNNPQDPFVENTKKLLRFNPLDPFVLSIKVFPFLTPILEALNITVFPRKVISFLTKSVKQIKEGRLKETQKHRVDFLQLMIDSQNSKDSETHKALSDLELMAQSIIFIFAGYETTSSVLSFIIYELATHPDVQQKVQKEIDTVLPNKAPPTYDTVLQLEYLDMVVNETLRLFPVAMRLERVCKKDVEINGMFIPKGVVVMIPSYVLHHDPKYWTEPEKFLPERFSKKNKDNIDPYIYTPFGSGPRNCIGMRFALVNMKLALVRVLQNFSFKPCKETQIPLKLRFGGLLLTEKPIVLKAESRDETVSGA
Km [7]: 43.8 ± 31.0 (6.4–199) μM and 44.4 ± 23.5 (15.1–116) μM
kcat [7]: 0.00167 s⁻¹ and 0.00333 s⁻¹
kcat/Km [7]: 50 M⁻¹ s⁻¹ and 66.7 M⁻¹ s⁻¹

B2: recombinant human CYP3A5 (Homo sapiens) (protein)
chain: MDLIPNLAVETWLLLAVSLVLLYLYGTRTHGLFKRLGIPGPTPLPLLGNVLSYRQGLWKFDTECYKKYGKMWGTYEGQLPVLAITDPDVIRTVLVKECYSVFTNRRSLGPVGFMKSAISLAEDEEWKRIRSLLSPTFTSGKLKEMFPIIAQYGDVLVRNLRREAEKGKPVTLKDIFGAYSMDVITGTSFGVNIDSLNNPQDPFVESTKKFLKFGFLDPLFLSIILFPFLTPVFEALNVSLFPKDTINFLSKSVNRMKKSRLNDKQKHRLDFLQLMIDSQNSKETESHKALSDLELAAQSIIFIFAGYETTSSVLSFTLYELATHPDVQQKLQKEIDAVLPNKAPPTYDAVVQMEYLDMVVNETLRLFPVAIRLERTCKKDVEINGVFIPKGSMVVIPTYALHHDPKYWTEPEEFRPERFSKKKDSIDPYIYTPFGTGPRNCIGMRFALMNMKLALIRVLQNFSFKPCKETQIPLKLDTQGLLQPEKPIVLKVDSRDGTLSGE
Km (not read): 72.5 ± 24.3 (19.5–125) μM and 60.2 ± 11.9 (40.2–89.7) μM
kcat (not read): 0.00367 s⁻¹
kcat/Km (not read): 50 M⁻¹ s⁻¹
